# ChEMBL document CHEMBL1201862, “PubChem BioAssay data set” (2004)
#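 Results reflect a 48-hour exposure of cells in 96-well plates to compound at five concentrations. At the GI50, growth is halved.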 Active and inactive are the calls of the source. No stated cut-off is given here; in the data, active = GI50 up to about 1.1 µM and inactive = higher.
# Columns and labels:
# Assay in all cases: NCI tumour cell line growth inhibition, 48 h
# 786-0 = system: 786-0
# A498 = system: A498
# A549 = system: A549
# ACHN = system: ACHN
# BT-549 = system: BT-549
# CAKI-1 = system: CAKI-1
# CCRF-CEM = system: CCRF-CEM
# COLO 205 = system: COLO 205
# DU-145 = system: DU-145
# EKVX = system: EKVX
# HCC 2998 = system: HCC 2998
# HCT-116 = system: HCT-116
# HCT-15 = system: HCT-15
# HL-60 = system: HL-60
# HOP-62 = system: HOP-62
# HOP-92 = system: HOP-92
# HT-29 = system: HT-29
# IGROV-1 = system: IGROV-1
# K562 = system: K562
# KM12 = system: KM12
# LOX IMVI = system: LOX IMVI
# M14 = system: M14
# MCF7 = system: MCF7
# MDA-MB-435 = system: MDA-MB-435
# MDA-N = system: MDA-N
# MOLT-4 = system: MOLT-4
# Malme-3M = system: Malme-3M
# NCI-H226 = system: NCI-H226
# NCI-H23 = system: NCI-H23
# NCI-H460 = system: NCI-H460
# NCI-H522 = system: NCI-H522
# NCI/ADR-RES = system: NCI/ADR-RES
# OVCAR-3 = system: OVCAR-3
# OVCAR-4 = system: OVCAR-4
# OVCAR-5 = system: OVCAR-5
# OVCAR-8 = system: OVCAR-8
# PC-3 = system: PC-3
# RPMI-8226 = system: RPMI-8226
# RXF 393 = system: RXF 393
# SF-268 = system: SF-268
# SF-295 = system: SF-295
# SF-539 = system: SF-539
# SK-MEL-28 = system: SK-MEL-28
# SK-MEL-2 = system: SK-MEL-2
# SK-MEL-5 = system: SK-MEL-5
# SK-OV-3 = system: SK-OV-3
# SN12C = system: SN12C
# SNB-19 = system: SNB-19
# SNB-75 = system: SNB-75
# SW-620 = system: SW-620
# T47D = system: T47D
# U-251 = system: U-251
# UACC-257 = system: UACC-257
# UACC-62 = system: UACC-62
# UO-31 = system: UO-31
# Hs-578T = system: Hs-578T
# MDA-MB-231 = system: MDA-MB-231
# SR = system: SR
# TK-10 = system: TK-10
smiles,measurement,setting,value
Cc1c2ccccc2c(C2C3C(=O)N(c4ccc(Br)cc4)C(=O)C3ON2C(C(N)=O)c2ccccc2)c2ccccc12 (stereo not drawn),GI50,786-0,5.5 µM (inactive)
same,GI50,A498,2.98 µM (inactive)
same,GI50,A549,3.64 µM (inactive)
same,GI50,ACHN,4.12 µM (inactive)
same,GI50,BT-549,7.29 µM (inactive)
same,GI50,CAKI-1,3.67 µM (inactive)
same,GI50,CCRF-CEM,3.18 µM (inactive)
same,GI50,COLO 205,1.77 µM (inactive)
same,GI50,DU-145,6.43 µM (inactive)
same,GI50,EKVX,5.28 µM (inactive)
same,GI50,HCC 2998,12.1 µM (inactive)
same,GI50,HCT-116,4.37 µM (inactive)
same,GI50,HCT-15,3.88 µM
same,GI50,HL-60,3.81 µM (inactive)
same,GI50,HOP-62,8.99 µM (inactive)
same,GI50,HOP-92,9.4 µM (inactive)
same,GI50,HT-29,2.58 µM (inactive)
same,GI50,IGROV-1,3.4 µM (inactive)
same,GI50,K562,4.11 µM (inactive)
same,GI50,KM12,4.11 µM (inactive)
same,GI50,LOX IMVI,4.97 µM (inactive)
same,GI50,M14,5.69 µM (inactive)
same,GI50,MCF7,4.43 µM (inactive)
same,GI50,MDA-MB-435,3.13 µM (inactive)
same,GI50,MDA-N,4.86 µM (inactive)
same,GI50,MOLT-4,4.05 µM (inactive)
same,GI50,Malme-3M,3.78 µM (inactive)
same,GI50,NCI-H226,5.3 µM (inactive)
same,GI50,NCI-H23,5.56 µM (inactive)
same,GI50,NCI-H460,3.56 µM (inactive)
same,GI50,NCI-H522,2.79 µM (inactive)
same,GI50,NCI/ADR-RES,4.39 µM (inactive)
same,GI50,OVCAR-3,3.01 µM (inactive)
same,GI50,OVCAR-4,4.94 µM (inactive)
same,GI50,OVCAR-5,5.6 µM (inactive)
same,GI50,OVCAR-8,6.78 µM (inactive)
same,GI50,PC-3,4.86 µM (inactive)
same,GI50,RPMI-8226,1.89 µM (inactive)
same,GI50,RXF 393,11.7 µM (inactive)
same,GI50,SF-268,9.14 µM (inactive)
same,GI50,SF-295,6.59 µM (inactive)
same,GI50,SF-539,4.13 µM (inactive)
same,GI50,SK-MEL-28,17.9 µM (inactive)
same,GI50,SK-MEL-2,5.62 µM (inactive)
same,GI50,SK-MEL-5,3.1 µM (inactive)
same,GI50,SK-OV-3,11.7 µM (inactive)
same,GI50,SN12C,5.3 µM (inactive)
same,GI50,SNB-19,4.8 µM (inactive)
same,GI50,SNB-75,5.02 µM (inactive)
same,GI50,SW-620,3.98 µM (inactive)
same,GI50,T47D,3.18 µM (inactive)
same,GI50,U-251,2.69 µM (inactive)
same,GI50,UACC-257,7.08 µM (inactive)
same,GI50,UACC-62,9.35 µM (inactive)
same,GI50,UO-31,10 µM (inactive)
COc1ccccc1-c1cc(O)c2cc(C)cnc2n1,GI50,A498,24.9 µM (inactive)
same,GI50,A549,51.6 µM (inactive)
same,GI50,ACHN,68.7 µM (inactive)
same,GI50,BT-549,45.5 µM (inactive)
same,GI50,CAKI-1,19.3 µM (inactive)
same,GI50,CCRF-CEM,17.2 µM (inactive)
same,GI50,COLO 205,14.8 µM (inactive)
same,GI50,DU-145,47.9 µM (inactive)
same,GI50,EKVX,52.1 µM (inactive)
same,GI50,HCC 2998,62.1 µM (inactive)
same,GI50,HCT-15,19.3 µM
same,GI50,HOP-62,42.9 µM (inactive)
same,GI50,HOP-92,36.8 µM (inactive)
same,GI50,HT-29,23.1 µM (inactive)
same,GI50,Hs-578T,43.4 µM (inactive)
same,GI50,IGROV-1,16.4 µM (inactive)
same,GI50,K562,5.89 µM (inactive)
same,GI50,KM12,5.5 µM (inactive)
same,GI50,LOX IMVI,46 µM (inactive)
same,GI50,M14,37.9 µM (inactive)
same,GI50,MCF7,47.5 µM (inactive)
same,GI50,MDA-MB-231,67.3 µM (inactive)
same,GI50,MDA-MB-435,3.8 µM (inactive)
same,GI50,MOLT-4,31.5 µM (inactive)
same,GI50,Malme-3M,24.7 µM (inactive)
same,GI50,NCI-H226,52.2 µM (inactive)
same,GI50,NCI-H23,40 µM (inactive)
same,GI50,NCI-H522,17.2 µM (inactive)
same,GI50,NCI/ADR-RES,15 µM (inactive)
same,GI50,OVCAR-4,> 100 µM (inactive)
same,GI50,OVCAR-5,80.5 µM (inactive)
same,GI50,OVCAR-8,66.2 µM (inactive)
same,GI50,RPMI-8226,30.4 µM (inactive)
same,GI50,RXF 393,33.4 µM (inactive)
same,GI50,SF-268,52.7 µM (inactive)
same,GI50,SF-539,38.5 µM (inactive)
same,GI50,SK-MEL-28,22.6 µM (inactive)
same,GI50,SK-MEL-2,25.2 µM (inactive)
same,GI50,SK-OV-3,25.3 µM (inactive)
same,GI50,SN12C,66.4 µM (inactive)
same,GI50,SNB-19,71.9 µM (inactive)
same,GI50,SR,> 100 µM (inactive)
same,GI50,SW-620,24.7 µM (inactive)
same,GI50,T47D,63.4 µM (inactive)
same,GI50,TK-10,> 100 µM (inactive)
same,GI50,UACC-257,38 µM (inactive)
same,GI50,UACC-62,31.8 µM (inactive)
same,GI50,UO-31,47.9 µM (inactive)
